For orientation: IC50 means the midpoint of a concentration-inhibition curve. A word on the EC50: it is the concentration that produces a half-maximal response. As a reminder, the half-life is how long it takes for the measured level to halve.

Molecules are shown by their SMILES. Where two headings read alike, the source gives them in different places.

The record followed here is patent publication US11279719B2, “Substituted bicyclic pyrimidine-based compounds and compositions and uses thereof” (priority 2017, dated 2022).

Data set [1] deals with T1, hFPPS (Homo sapiens (Human), UniProt P14324). The note with it: read-out: hFPPS IC50.
Another data set has as its target recombinant human GGPPS (Homo sapiens (Human), UniProt O95749). The data set can be described thus: In vitro hGGPPS inhibition assay. The class given is biochemical. The following applies: for IC50: wild-type hGGPPS enzyme, average of n ≥ 3 determinations; for selectivity improved for inhibiting hGGPPS vs hFPPS: starting from the original hits, e.g. C-5.
The subject of the next data set is JJN3. The data set can be described thus: MM cell viability assay (MTS proliferation). In kind it is cell-based. The note with it: Homo sapiens, JJN-3; 72 hours, average of n ≥ 8 determinations; read-out: MM cells EC50, JJN3. How it is done: (§1) Various MM cancer cell lines (Table 3 and FIGS. 5 and 6) were cultured in RPMI-1640 medium supplemented with 10% fetal bovine serum (Gibco BRL, Gaithersburg, Md.) supplemented with 2 mM L-glutamine in a 5% CO2 atmosphere at 37° C. EC50 values for each target compound were determined using a commercial MTS proliferation assay (Promega, Madison, Wis.) following the manufacturer's instructions. Briefly, compounds were diluted directly into culture medium and then applied to cells that were seeded in 96-well plates at a density 5,000 cells per well. Cells were incubated with the indicated final concentration of compound in a total media volume of 100 μl/well for 72 hours prior to the addition of the MTS reagent. Plates were incubated at 37° C. in the presence 5% CO2 for 2 hours prior to recording OD490 using a Tecan Infinite M200Pro microplate reader. Results were analyzed to obtain dose-response curves and EC50 calculations using GraphPad PRISM version 5 for the MacIntosh (GraphPad Software, San Diego, Calif.).

Another data set deals with RPMI-8226. The data set can be described thus: MM cell viability assay (MTS proliferation). The note with it: Homo sapiens, 72 hours, average of n ≥ 8 determinations, read-out: MM cells EC50, RPMI-8226. The class given is cell-based.
Another data set concerns KMS28PE. Briefly: MM cell viability assay (MTS proliferation). In kind it is cell-based. The following applies: Homo sapiens, KMS-28PE; 72 hours, average of n ≥ 8 determinations; read-out: MM cells EC50, KMS28PE. As to the method:
as §1

Data set [2] concerns phosphorylated Tau protein (P-Tau). Briefly: Phosphorylation of the tau protein in immortalized human neurons. The class given is cell-based. The following applies: immortalized human neurons (SH-SYSY).
In the next data set the test system is SH-SYSY neurons. The data set can be described thus: LDH toxicity assay in immortalized human neurons. The class given is cell-based.
For data set [3], the system named is chronic myelogenous leukemia (K562) cells. Briefly: Cancer cell viability. The class given is cell-based, human. The note with it: compared to zolendronate (ZOL), FIG. 4. How it is done: (§2) NCI-ADR-RES cells were obtained from National Cancer Institute (NCI) and all other cell lines were obtained from the American Type Culture Collection (ATCC). NHBE cells were maintained in Bronchial Epithelial Cell Growth Medium (BEGM) supplemented with 10% FBS (Multicell) and 2 mM L-glutamine (Gibco/Life Technologies). All other cells were maintained in culture using Roswell Park Memorial Institute (RPMI) 1640 media supplemented with 10% FBS (Multicell), Penicillin (100 U/mL), Streptomycin (100 ug/mL) and 2 mM L-glutamine (Gibco/Life Technologies). Cells were plated in logarithmic growth phase in each well of clear bottom multiwell plates and cultured 16-24 h before drug treatment. […]
(§3) Cell viability was determined by cellular quantitation of adenosine triphosphate (ATP) using the CellTiter-Glo Luminescent Cell Viability Assay Kit (Promega Corporation, Cat. No. G7571). Briefly, the CellTiter-Glo «one-mix-measure» reagent, containing both the cell permeabilizing agent and the Ultra-Glo luciferase, was added to the cell culture according to manufacturers' instructions allowing the free ATP to be released from viable cells and subsequently converted into luminescence. The luminescence generated in the reaction is directly proportional to cell viability and was quantified in a luminometer (PHERAstar FS, BMG Labtech) […]

The test system of data set [4] is acute monocytic leukemia (MOLM-13) cells. The data set can be described thus: Cancer cell viability. In kind it is cell-based, human. The following applies: compared to zolendronate (ZOL), FIG. 4. How it is done:
as §2, §3

The test system of data set [5] is multiple myeloma cell line RPMI-8226. Briefly: Apoptosis assay in multiple myeloma cells (flow cytometry). The class given is cell-based, human. The following applies: 100 nM, 500 nM, and 1 μM, 72 h, FIG. 6. As to the method:
To determine the ability of compounds of the application to induce MM cell lines to undergo apoptosis, cells were seeded at a density of 7.5×10^5/mL in medium supplemented with 10% FBS with increasing concentrations of compound (i.e. compound that inhibits hGGPPS) or vehicle alone. Following a 72 h incubation, apoptosis was determined by double staining with APC Annexin V (BD Biosciences, Mississauga ON) and eFluor 780 Viability dye (ThermoFisher Scientific) according to the manufacturer's directions. Stained samples were acquired on a BD FACSCanto II instrument (BD Biosciences, Mississauga ON) and post-acquisition analyses were performed using FlowJo (V10) software. Apoptosis of multiple myeloma cells was also determined by flow cytometry by double staining cells with Allophycocyanin (APC) conjugated Annexin V and a V450 conjugated Mouse Anti-Human CD138 monoclonal antibody, following the manufacturer's instructions (BD Biosciences, Mississauga ON).
Background: In flow cytometry, cells or beads pass a laser one at a time.

In data set [6] the target is T1, hFPPS. The data set can be described thus: biochemical.
Data set [7] can be described thus: in vitro. The note with it: human, microsomes.
Data set [8] can be described thus: Lipophilicity by C-18 reversed phase HPLC relative retention. The note with it: versus zolodronic acid.
The test system of data set [9] is normal human bronchial cells (NHBE). Briefly: Cell viability (CellTiter-Glo), normal cells. The following applies: compared to doxorubicin, FIG. 3a. The class given is cell-based. How it is done:
as §2, §3
Background: Cellular ATP, detected with luciferase, serves as a proxy for viable cell number.

Data set [10] can be described thus: in vitro. The following applies: Sprague-Dawley, rat, microsomes.
Data set [11] can be described thus: in vitro. The note with it: male, CD-1, mouse, microsomes.

recombinant human GGPPS, sequence (O95749 whole entry): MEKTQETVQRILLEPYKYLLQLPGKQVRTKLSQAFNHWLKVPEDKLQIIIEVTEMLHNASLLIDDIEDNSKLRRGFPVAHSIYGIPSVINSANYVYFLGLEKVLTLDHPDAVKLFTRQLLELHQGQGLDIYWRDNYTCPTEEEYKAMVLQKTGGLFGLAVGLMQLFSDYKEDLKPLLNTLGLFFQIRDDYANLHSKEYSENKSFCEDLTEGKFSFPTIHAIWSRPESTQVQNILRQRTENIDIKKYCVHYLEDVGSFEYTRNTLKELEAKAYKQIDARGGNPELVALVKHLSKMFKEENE
T1 sequence (P14324 whole entry): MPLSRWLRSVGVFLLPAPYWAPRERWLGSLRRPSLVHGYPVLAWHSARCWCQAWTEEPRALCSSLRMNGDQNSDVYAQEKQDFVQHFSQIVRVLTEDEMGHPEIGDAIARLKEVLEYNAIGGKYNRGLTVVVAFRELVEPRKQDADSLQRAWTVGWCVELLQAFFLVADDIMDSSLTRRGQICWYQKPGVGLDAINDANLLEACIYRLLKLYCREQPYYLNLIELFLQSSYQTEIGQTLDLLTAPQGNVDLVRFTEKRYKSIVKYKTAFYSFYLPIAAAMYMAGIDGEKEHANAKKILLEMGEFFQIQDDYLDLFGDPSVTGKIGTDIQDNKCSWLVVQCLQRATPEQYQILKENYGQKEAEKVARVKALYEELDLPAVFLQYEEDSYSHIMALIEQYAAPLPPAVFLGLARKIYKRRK

As for `O=P(O)(O)C(Nc1ncnc2sc(-c3ccc(OC4CC4)cc3)cc12)P(=O)(O)O` [Compound C-13, reference compound], the values for the IC50 at hFPPS [1] and on recombinant human GGPPS were 0.014 µM and about 10000 µM, respectively. The “Ratio of hFPPS IC50 vs hGGPPS IC50” value on recombinant human GGPPS was >7 × 10^−5. The figures for the EC50 in the data set with JJN3 and in the data set with RPMI-8226 were over 10 µM and over 50 µM, respectively.
Regarding `O=P(O)(O)C(Nc1ncnc2sc(-c3ccccc3)cc12)P(=O)(O)O` [Compound C-10, reference compound], at hFPPS [1], the IC50 is 0.2 µM.
In the case of `COc1ccc(C(=O)Nc2cccc(-c3nc(NC(P(=O)(O)O)P(=O)(O)O)c4ccsc4n3)c2)cc1` [Compound I-5, (((2-(3-(4-methoxybenzamido)phenyl)thieno[2,3-d]pyrimidin-4-yl)amino)methylene)bis(phosphonic acid)], the results for the IC50 at hFPPS [1] and at recombinant human GGPPS were 1 µM and 0.085 µM, respectively. The “Ratio of hFPPS IC50 vs hGGPPS IC50” value at recombinant human GGPPS was 12. Further, the concentration giving a half-maximal response (EC50) in the data set with KMS28PE is 1.4 µM; in the data set with JJN3, 1.3 µM; in the data set with RPMI-8226, 0.38 µM. In addition, in data set [2], the “Reduction in P-Tau/Total-tau protein” value is recorded as 43%. Besides, the “LDH Toxicity Assay (relative toxicity compared to the control samples)” value in the data set with SH-SYSY neurons is on record as “None observed”.
For the compound `O=C(Nc1ccccc1)c1cccc(-c2nc(NC(P(=O)(O)O)P(=O)(O)O)c3ccsc3n2)c1` [Compound I-6, (((2-(3-(phenylcarbamoyl)phenyl)thieno[2,3-d]pyrimidin-4-yl)amino)methylene)bis(phosphonic acid)], the IC50 on hFPPS [1] came to 3 µM; at recombinant human GGPPS, 0.053 µM. Further, on recombinant human GGPPS, the “Ratio of hFPPS IC50 vs hGGPPS IC50” value is 57. Moreover, at recombinant human GGPPS, the “selectivity improved for inhibiting hGGPPS vs hFPPS” value is listed as about 55 fold. Also, the half-maximal effective concentration (EC50) in the data set with KMS28PE turned out to be 0.7 µM; in the data set with JJN3, 0.34 µM; in the data set with RPMI-8226, 0.11 µM. The “blocking viability of cancer cells” value in data set [3] and in data set [4] was “more effective” throughout.
As for `COC(C(=O)Nc1cccc(-c2nc(NC(P(=O)(O)O)P(=O)(O)O)c3ccsc3n2)c1)c1ccccc1` (stereo not drawn) [Compound I-24], the apoptosis entry in data set [5] is “induce apoptosis”.
Regarding `Cc1ccc(C(=O)Nc2cccc(-c3nc(NC(P(=O)(O)O)P(=O)(O)O)c4ccsc4n3)c2)cc1` [Compound I-18, (((2-(3-(4-methylbenzamido)phenyl)thieno[2,3-d]pyrimidin-4-yl)amino)methylene)bis(phosphonic acid)], the results for the 50% effective concentration (EC50) in the data set with KMS28PE, with JJN3 and in the data set with RPMI-8226 were 0.62 µM, 0.6 µM and 0.12 µM, respectively. Inhibition against hFPPS [6] was half-maximal at 2.4 µM (IC50).
Turning to `O=P(O)(O)C(O)(Cc1cccnc1)P(=O)(O)O` [RIS, Risedronic acid, reference compound], the EC50 in the data set with KMS28PE amounted to 10.6 µM; in the data set with JJN3, 10 µM.
Turning to `O=C(Nc1cccc(-c2nc(NC(P(=O)(O)O)P(=O)(O)O)c3ccsc3n2)c1)c1ccccc1` [Compound I-13], the IC50 at hFPPS [1] turned out to be 2 µM; on recombinant human GGPPS it was 0.064 µM. In addition, the “Ratio of hFPPS IC50 vs hGGPPS IC50” value at recombinant human GGPPS was found to be 31. In addition, at recombinant human GGPPS, the “selectivity improved for inhibiting hGGPPS vs hFPPS” value is “approximately 30 fold”. The concentration for a half-maximal effect (EC50) in the data set with KMS28PE amounted to 0.55 µM; with JJN3, 0.5 µM; in the data set with RPMI-8226, 0.1 µM.
Turning to `COc1ccc(NC(=O)c2cccc(-c3nc(NC(P(=O)(O)O)P(=O)(O)O)c4sccc4n3)c2)cc1F` [Compound I-42, (((2-(3-((3-fluoro-4-methoxyphenyl)carbamoyl)phenyl)thieno[3,2-d]pyrimidin-4-yl)amino)methylene)bis(phosphonic acid)], the IC50 on recombinant human GGPPS stood at 0.085 µM. Further, in the data set on RPMI-8226, the EC50 came to 0.2 µM.
For `COc1ccc(NC(=O)c2cccc(-c3nc(NC(P(=O)(O)O)P(=O)(O)O)c4ccsc4n3)c2)cc1F` [Compound I-37, (((2-(3-((3-fluoro-4-methoxyphenyl)carbamoyl)phenyl)thieno[2,3-d]pyrimidin-4-yl)amino)methylene)bis(phosphonic acid)], the half-life in the data set “in vitro [7]” is 2.57 h; in “in vitro [10]” it was 3.12 h; in “in vitro [11]”, 2.13 h. Also, the “difference in relative retention time on C-18 reversed phase HPLC column (lipophilicity)” value in data set [8] was “more than 7 min”. Further, the “toxicity to normal human bronchial cells” value in data set [9] is “less toxic”. In addition, the EC50 in the data set on KMS28PE came out at 0.17 µM; in the data set with JJN3, 0.51 µM; with RPMI-8226 it was 0.15 µM.
Turning to `O=P(O)(O)C(Nc1nc(-c2ccccc2)nc2sccc12)P(=O)(O)O` [Compound C-5, reference compound], the “Ratio of hFPPS IC50 vs hGGPPS IC50” value on recombinant human GGPPS is about 7. Further, the IC50 was 0.082 µM at recombinant human GGPPS and 0.54 µM against hFPPS [6].
For the compound `O=P(O)(O)C(Nc1ncnc2sc(-c3ccc(C(F)(F)F)cc3)cc12)P(=O)(O)O` [Compound C-12, reference compound], the IC50 is 0.023 µM on hFPPS [1] and about 10000 µM at recombinant human GGPPS. In addition, the “Ratio of hFPPS IC50 vs hGGPPS IC50” value at recombinant human GGPPS is given as >4 × 10^−5. Also, the half-maximal effective concentration (EC50) was over 10 µM with JJN3 and over 50 µM with RPMI-8226.
For the compound `COc1ccc(NC(=O)c2cccc(-c3nc(NC(P(=O)(O)O)P(=O)(O)O)c4ncsc4n3)c2)cc1F` [Compound I-43], the IC50 at recombinant human GGPPS stood at 0.065 µM. Also, the EC50 with RPMI-8226 came to 0.14 µM.
For the compound `O=P(O)(O)C(O)(Cn1ccnc1)P(=O)(O)O` [ZOL, zoledronic acid, reference compound], the concentration giving a half-maximal response (EC50) stood at 6.4 µM in the data set on KMS28PE and 5 µM in the data set on JJN3. Besides, in data set [2], the “Reduction in P-Tau/Total-tau protein” value is on record as 50%.
